# Experimental data: patent US20200246308A1, “SYNERGISTIC COMBINATIONS OF UROLITHINS A AND B FOR IMPROVING COGNITIVE CAPACITY OR COGNITIVE FUNCTION” (Natreon, Inc., priority 2018, published 2020)
# “Also recorded” adds a separate entry of the source.
# Assays:
# [1] = target: T1, Rat Acetylcholinesterase-induced β-Amyloid (Aβ1-40) Aggregation (Rattus norvegicus, UniProt P37136); experiment: Inhibition of AChE-induced β-amyloid peptide aggregation, ThT method; format: biochemical; settings: test compounds 50 μM, B:A in μM, ThT fluorescence, 48 h
# T1 sequence (P37136 32-614): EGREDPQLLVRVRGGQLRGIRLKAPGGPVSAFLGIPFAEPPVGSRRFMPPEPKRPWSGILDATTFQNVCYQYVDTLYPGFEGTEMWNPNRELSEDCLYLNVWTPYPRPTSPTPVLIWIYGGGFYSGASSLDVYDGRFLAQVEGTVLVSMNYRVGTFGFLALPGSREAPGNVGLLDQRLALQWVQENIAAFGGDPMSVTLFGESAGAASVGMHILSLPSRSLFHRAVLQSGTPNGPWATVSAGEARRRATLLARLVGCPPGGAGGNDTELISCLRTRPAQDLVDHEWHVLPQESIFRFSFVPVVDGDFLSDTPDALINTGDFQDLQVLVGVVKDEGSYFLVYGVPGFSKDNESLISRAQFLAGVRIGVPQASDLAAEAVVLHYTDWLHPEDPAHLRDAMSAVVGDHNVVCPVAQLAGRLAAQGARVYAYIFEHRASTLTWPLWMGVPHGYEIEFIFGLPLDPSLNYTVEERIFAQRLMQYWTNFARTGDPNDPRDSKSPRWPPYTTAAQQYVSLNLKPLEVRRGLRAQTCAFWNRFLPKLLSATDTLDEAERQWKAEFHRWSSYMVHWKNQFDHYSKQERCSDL
# Protocol: Chemical reagents and starting materials were employed as above.
# The effect of 3-OH-DBP (Urolithin B: B) and 3,8-(OH)2-DBP (Urolithin A: A) on the aggregation propensity of Aβ1-40 and (Thiofavin-T) ThT assay measurements were performed. […] Therefore, ThT assay was performed to study the effect of 3-(OH)-DBP (B) and 3,8-(OH)2-DBP (A) on the fibrillization of Aβ1-40.
# The Aβ1-40 (10 μM and 30 μM) was incubated alone and independently with different concentrations of test compounds in the ratios shown in Tables 6 and 7, respectively.
# 2 μL of different concentrations of Aβ40 (10 and 30 μM) was incubated with 16 μL of AChE in the presence of different ratio of test compounds to obtain final concentrations of 30 or 10 μM Aβ40, […], 10, 20, 50 μM test compounds and 2 μL assay buffer ([…]). The mixture was incubated at room temperature for 24 or 48 hr in dark (Time period may be changed according to experiment).
# Fluorescence intensities were obtained for Aβ40 aggregation in the presence of inhibitors, in the absence of inhibitors and the blanks or solvent control. After incubation, 178 μL of 20 μM ThT was added.
# The percentage inhibition of the AChE-induced Aβ1-40 aggregation was calculated as follows.
# Preparation of Aβ40Stock: Aβ40 peptide (0.25 mg) (Calbiochem, Merck) was dissolved in hexafluoro-2-propanol (HFIP, 0.2 mL) and incubated at room temperature for 1 h. HFIP was then removed by the flow of nitrogen and further dried under vacuum. The concentration of Aβ40 peptide was determined by UV-vis spectrometry (Biotek USA; Plate reader) using a molar extinction coefficient of 1450 cm^−1 M^−1 at 276 nm. HFIP-treated A1340 was then dissolved in 10 mM PBS buffer to a concentration of […] at pH 7.4. The assay was performed in triplicate and in three independent runs.
# [2] = tested on: cortical brain mitochondria; experiment: Mitochondrial respiration and respiratory control ratio (RCR) of isolated brain cortex mitochondria after 21 days treatment; settings: for Respiratory control ratio (RCR): old mice (18 to 20 month), 50 mg/kg p.o.; for Respiratory control ratio (RCR) / Mitochondrial respiration in all states: 21 days; for State II respiratory rate / Mitochondrial respiration in all states: 50 mg/kg; for Mitochondrial respiration in all states: young and old mice, vs respective normal control; for Respiratory rate at state V (complex I): FCCP
# Protocol: Briefly the mitochondria were added to the chamber and respiratory states were evaluated by suitable substrates and inhibitors. Purified mitochondrial protein was suspended in respiration buffer in a final volume of 250 μL. State II respiration was initiated by addition of Pyruvate/Malate (P/M), with basal rate of respiration. […] State IV was measured by addition of oligomycin. The respiration returns to basal rate since the ATP synthase is shut down and no electrons are allowed to return to the matrix. The electron transport chain (ETC) continues only to maintain mitochondrial membrane potential due to loss of protons back into the matrix. State V was measured by addition of FCCP. This represents the maximum rate of respiration, causing uncoupling of the ETC to ATP synthesis, and allows protons to rush back into the matrix. Rotenone was then added to shut down complex I-driven respiration. State V (succinate) was determined by addition of succinate. This is the maximum rate of respiration via complex II, since FCCP is present in the system.
# Human recombinant AChE = target: T2, Human recombinant AChE (Homo sapiens, UniProt P22303); experiment: In-vitro human recombinant AChE inhibition assay, Amplex Red kit method; format: biochemical; settings: Table 11
# T2 construct: purchased Sigma Aldrich
# Protocol: In-vitro human recombinant AChE inhibition assay by Amplex Red kit method: The anticholinesterase activity of experimental drugs was measured by using Amplex red assay kit (Molecular Probes, Inc., USA). Fluorescence assay used for the screen of Human AChE activity in the presence of each experimental drug from a commercially available kit (Amplex Red, Invitrogen, Thermo Fisher Scientific, Waltham, Mass.). Acetylcholine, the product of AChE catalysis, was converted to a fluorescent called resorufin by the addition of a series of kit enzymes, including Choline oxidase (CO), horseradish peroxidase (HRP), and the fluorogenic substrate Amplex Red. As the fluorescent molecule resorufin is dependent on acetylcholine production and acetylcholine production is the product of AChE catalysis, the rate of change in fluorescence is a measurement of AChE activity. […] The following procedure is designed for use with a fluorescence multi-well plate scanner. […]
# Positive control wells, representing 100% Human recombinant AChE activity (0% human-AChE inhibition), contained, Acetylcholine, and Amplex Red solution. […] Fluorescence measurements were taken at baseline (immediately after substrate was added to each well), and after a 60-minute incubation at 37° C. The fluorescence micro-plate reader was measured using excitation in the range of 530-560 nm and emission detected at 590 nm. […]
# [3] = tested on: scopolamine induced amnesic rat model; experiment: Passive avoidance test, scopolamine induced amnesic rat model (Example 9B); format: in vivo, Male Wistar rats; settings: p.o. 7 days: B 50, A 50, B:A 10:50 and 50:50 mg/kg, Shilajit 25 mg/kg b.i.d; scopolamine 1 mg/kg i.p.
# Protocol: The experiment was conducted in accordance with the Principles of laboratory animal care. Male Wistar rats (200-250 g) were purchased from the Central Animal House, Institute of Medical Sciences, Banaras Hindu University (BHU), Varanasi, India. Experiments on animals were approved by the Institutional Animal Ethics Committee of BHU, Varanasi, India. The animals were housed in polypropylene cages under controlled environmental conditions of temperature of 25±1° C. and 45-55% relative humidity and a 12:12 h light/dark cycle. The experimental animals had free access to commercial rat feed and water ad libitum during the experiment. Animals were acclimatized for at least one week before using them for experiments and exposed only once to the experiment.
# Rats were randomly allocated into eight study groups containing six in each group (n=6), as follows:
# Drug solution was freshly prepared in 0.3% CMC and administered by oral gavage once a day, for a period of 7 days. Briefly, the whole experiment was conducted for 8 days. […]
# Passive avoidance (PA) test: The PA task is a fear-aggravated test used to evaluate learning and memory in rodent models of CNS disorders. […] The transfer of the animal from one compartment to another was recorded and transfer latency time (TLT) was calculated in seconds. […]
# T2 sequence (P22303 32-614): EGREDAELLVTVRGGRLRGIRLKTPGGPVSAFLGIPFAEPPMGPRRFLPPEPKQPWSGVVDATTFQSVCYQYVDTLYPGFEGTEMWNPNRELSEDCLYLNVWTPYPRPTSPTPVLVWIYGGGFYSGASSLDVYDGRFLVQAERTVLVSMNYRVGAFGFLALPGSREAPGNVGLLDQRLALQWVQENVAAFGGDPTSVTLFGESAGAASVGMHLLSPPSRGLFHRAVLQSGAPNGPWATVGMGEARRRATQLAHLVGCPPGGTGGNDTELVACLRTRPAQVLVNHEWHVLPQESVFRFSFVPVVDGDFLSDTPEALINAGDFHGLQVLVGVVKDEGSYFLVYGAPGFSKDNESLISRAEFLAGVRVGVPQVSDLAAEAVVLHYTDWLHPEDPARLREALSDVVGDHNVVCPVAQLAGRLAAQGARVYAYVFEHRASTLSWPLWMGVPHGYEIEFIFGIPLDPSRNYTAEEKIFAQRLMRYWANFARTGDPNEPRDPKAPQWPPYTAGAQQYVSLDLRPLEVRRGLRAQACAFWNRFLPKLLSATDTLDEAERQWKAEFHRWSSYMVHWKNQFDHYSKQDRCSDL
smiles,measurement,setting,value
"O=c1oc2cc(O)ccc2c2ccccc12 [Urolithin B, 3-hydroxy-dibenzo-alpha-pyrone]",inhibition of Aβ40 aggregation,[1]; Aβ40 30 μM,~41%
same,inhibition of Aβ40 aggregation,[1]; amyloid beta 10 μM,~50%
same,Respiratory control ratio (RCR),[2]; vs old control,significantly increased the RCR
same,State II respiratory rate,"[2]; old mice, vs old control",found to be increased
same,Mitochondrial respiration in all states,[2],significantly increased mitochondrial respiration
same,State II respiratory rate,"[2]; young mice, vs young control",significant increases in respiratory rate
same,Respiratory rate at state V (complex I),[2]; young mice,significantly found to be increased; also recorded: less effect
same,IC50,Human recombinant AChE,412.00 ± 28.28 µg/mL
same,"Transfer latency time (TLT), retention trial vs acquisition trial",[3],significant increase in TLT of retention trial in comparison to acquisition trial but less effective as compared to the vehicle treated group
"O=c1oc2cc(O)ccc2c2ccc(O)cc12 [Urolithin A, 3,8-dihydroxy-dibenzo-alpha-pyrone]",inhibition of Aβ40 aggregation,[1]; Aβ40 30 μM,~32%
same,inhibition of Aβ40 aggregation,[1]; amyloid beta 10 μM,~35%
same,Respiratory control ratio (RCR),[2]; vs old control,significantly increased the RCR
same,State II respiratory rate,"[2]; old mice, vs old control",found to be increased
same,Mitochondrial respiration in all states,[2],significantly increased mitochondrial respiration
same,State II respiratory rate,"[2]; young mice, vs young control",significant increases in respiratory rate
same,Respiratory rate at state V (complex I),[2]; young mice,significantly found to be increased
same,IC50,Human recombinant AChE,528.00 ± 70.71 µg/mL
same,"Transfer latency time (TLT), retention trial vs acquisition trial",[3],significant increase in TLT of retention trial in comparison to acquisition trial but less effective as compared to the vehicle treated group
